According to the NIST ThermoML archive (doi:10.1021/je700406p):

Assay: wn = mass fraction of the nth substance listed
Details: Liquid, Vibrating tube method

CC(C)(N)CO [2-amino-2-methylpropan-1-ol] + O
Details	mass density [kg/m3]
342.92 K, 18002 kPa, w1 = 0.1997	979
342.92 K, 18994 kPa, w1 = 0.4976	961.7
342.92 K, 18999 kPa, w1 = 0.1997	979.2
342.92 K, 19993 kPa, w1 = 0.4976	962.1
342.92 K, 20029 kPa, w1 = 0.1997	979.8
342.92 K, 21004 kPa, w1 = 0.1997	980.2
342.92 K, 21021 kPa, w1 = 0.4976	962.5
342.92 K, 22004 kPa, w1 = 0.1997	980.6
342.92 K, 23001 kPa, w1 = 0.1997	981
342.92 K, 24005 kPa, w1 = 0.1997	981.5
342.93 K, 1004 kPa, w1 = 0.4002	962.4
342.93 K, 2006 kPa, w1 = 0.4002	962.8
342.93 K, 3009 kPa, w1 = 0.4002	963.3
342.93 K, 4013 kPa, w1 = 0.4002	963.7
342.93 K, 4998 kPa, w1 = 0.4002	964.2
342.93 K, 5995 kPa, w1 = 0.4002	964.6
342.93 K, 6996 kPa, w1 = 0.4002	965
342.93 K, 7995 kPa, w1 = 0.4002	965.5
342.93 K, 8994 kPa, w1 = 0.4002	965.9
342.93 K, 10004 kPa, w1 = 0.4002	966.3
342.93 K, 10993 kPa, w1 = 0.4002	966.8
342.93 K, 12000 kPa, w1 = 0.4002	967.2
342.93 K, 12990 kPa, w1 = 0.4002	967.6
342.93 K, 13993 kPa, w1 = 0.4002	968
342.93 K, 14985 kPa, w1 = 0.4002	968.5
342.93 K, 15999 kPa, w1 = 0.4002	968.9
342.93 K, 16987 kPa, w1 = 0.4002	969.3
342.93 K, 17994 kPa, w1 = 0.4002	969.8
342.93 K, 18984 kPa, w1 = 0.4002	970.2
342.93 K, 19987 kPa, w1 = 0.4002	970.6
342.93 K, 20996 kPa, w1 = 0.4002	971
352.84 K, 1007 kPa, w1 = 0.4002	954.4
352.84 K, 2012 kPa, w1 = 0.4002	954.9
352.84 K, 3000 kPa, w1 = 0.4002	955.3
352.84 K, 4011 kPa, w1 = 0.4002	955.8
352.84 K, 5007 kPa, w1 = 0.4002	956.3
352.84 K, 6009 kPa, w1 = 0.4002	956.7
352.84 K, 7008 kPa, w1 = 0.4002	957.2
352.84 K, 8014 kPa, w1 = 0.4002	957.6
352.84 K, 8988 kPa, w1 = 0.4002	958.1
352.84 K, 9986 kPa, w1 = 0.4002	958.5
352.84 K, 11001 kPa, w1 = 0.4002	959
352.84 K, 12004 kPa, w1 = 0.4002	959.5
352.84 K, 12991 kPa, w1 = 0.4002	959.8
352.84 K, 13986 kPa, w1 = 0.4002	960.3
352.84 K, 14991 kPa, w1 = 0.4002	960.8
352.84 K, 15997 kPa, w1 = 0.4002	961.2
352.84 K, 16988 kPa, w1 = 0.4002	961.6
352.84 K, 17995 kPa, w1 = 0.4002	962
352.84 K, 18987 kPa, w1 = 0.4002	962.5
352.84 K, 19995 kPa, w1 = 0.4002	962.9
352.84 K, 20986 kPa, w1 = 0.4002	963.3
352.85 K, 997 kPa, w1 = 0.2821	961.9
352.85 K, 2011 kPa, w1 = 0.2821	962.4
352.85 K, 2994 kPa, w1 = 0.2821	962.8
352.85 K, 4000 kPa, w1 = 0.2821	963.2
352.85 K, 5006 kPa, w1 = 0.2821	963.7
352.85 K, 6000 kPa, w1 = 0.2821	964.1
352.85 K, 6999 kPa, w1 = 0.2821	964.5
352.85 K, 7996 kPa, w1 = 0.2821	965
352.85 K, 8992 kPa, w1 = 0.2821	965.4
352.85 K, 9994 kPa, w1 = 0.2821	965.8
352.85 K, 10987 kPa, w1 = 0.2821	966.2
352.85 K, 12010 kPa, w1 = 0.2821	966.7
